Results taken from patent US12121540B2, “CBL inhibitors and compositions for use in adoptive cell therapy” (Nurix Therapeutics, Inc., priority 2019, dated 2024).

Key:
[1] = system: human tumor-infiltrating lymphocytes (TIL); test: Ex vivo expansion of TIL from human tumor fragments (pre-REP); assay type: cell-based; details: for Expansion of TIL, total cell number relative to IL-2 alone: day 17
Method: Samples of human ovarian and colon tumors were obtained from the Cooperative Human Tissue Network (CHTN, c/o Vanderbilt University Medical Center, Nashville, TN). Solid tumor specimens were carefully dissected free of surrounding fatty and necrotic areas. The tumors were sliced into 8 mm^3 (2×2×2 mm^3) fragments under sterile conditions using a scalpel and a scalpel holder.
(§1) The plates were placed in a humidified 37° C. incubator with 5% CO2. Half of the medium was replaced every two days after culture initiation. […] Subsequently, half the media was replaced thrice weekly, cultures were split to maintain a cell density of 1×10^6 cells/mL. […] Mitochondrial markers including, Mitotracker, Mitoprobe, and 2-NBDG may also be used to assess differentiation and/or activation of cells.

[2] = system: human tumor-infiltrating lymphocytes (TIL); test: Flow cytometry immunophenotyping of expanded TIL; assay type: cell-based; details: for CD4 TCM CD62L+ CCR7+, percentage of total TIL cell number / CD4 TEM CD62L− CCR7−, percentage of total TIL cell number / CD8 TCM CD62L+ CCR7−, percentage of total TIL cell number / CD8 TEM CD62L− CCR7−, percentage of total TIL cell number: TIL1 population, day 28
Method: as §1
T lymphocytes were defined based on lineage and differentiation marker expression according to the developmental model (Restifo, Blood, 124:476-477, 2014), as shown in Table 4.

OT-1 cells = test: Tumor re-challenge of long term survivors 149 days after OT-1 transfer; assay type: in vivo, mouse
Text: To determine whether OT-1 cells are capable of long-term tumor protection, the long term survivors of the above experiment (FIG. 12) were re-challenged with a lethal dose of E.G7-OVA tumor cells 149 days after the initial adoptive transfer of the in vitro expanded OT-1 cells. Re-challenge induced OT-1 cell expansion at the site engrafted with E.G7-OVA tumor cells expressing ovalbumin antigen, thereby effectively controlling tumor growth (FIG. 21).

C[C@@H]1CN(Cc2cc3c(c(C(F)(F)F)c2)CN(c2cccc(C4(Cc5nncn5C)COC4)c2)C3=O)CCC1(F)F [compound 103]
Expansion of TIL ([1]; Cbl inhibitor in the absence of IL-2): considerable expansion of TIL
Expansion of TIL, total cell number relative to IL-2 alone ([1]; TIL1 (ovary), 0.1 μM Cbl-i): 90%
Expansion of TIL, total cell number relative to IL-2 alone ([1]; TIL1 (ovary), 1.0 μM Cbl-i): 75%
Expansion of TIL, total cell number relative to IL-2 alone ([1]; TIL1 (ovary), 10 μM Cbl-i): 60%
Expansion of TIL, total cell number relative to IL-2 alone ([1]; TIL1 (ovary), IL-2 + 0.1 μM Cbl-i): 300%
Expansion of TIL, total cell number relative to IL-2 alone ([1]; TIL1 (ovary), IL-2 + 1.0 μM Cbl-i): 450%
Expansion of TIL, total cell number relative to IL-2 alone ([1]; TIL1 (ovary), IL-2 + 10 μM Cbl-i): 450%
Expansion of TIL, total cell number relative to IL-2 alone ([1]; TIL2 (ovary), 0.1 μM Cbl-i): 30%
Expansion of TIL, total cell number relative to IL-2 alone ([1]; TIL2 (ovary), 1.0 μM Cbl-i): 26%
Expansion of TIL, total cell number relative to IL-2 alone ([1]; TIL2 (ovary), 10 μM Cbl-i): 22%
Expansion of TIL, total cell number relative to IL-2 alone ([1]; TIL2 (ovary), IL-2 + 0.1 μM Cbl-i): 49%
Expansion of TIL, total cell number relative to IL-2 alone ([1]; TIL2 (ovary), IL-2 + 1.0 μM Cbl-i): 86%
Expansion of TIL, total cell number relative to IL-2 alone ([1]; TIL2 (ovary), IL-2 + 10 μM Cbl-i): 49%
Expansion of TIL, total cell number relative to IL-2 alone ([1]; TIL3 (ovary), 0.1 μM Cbl-i): 30%
Expansion of TIL, total cell number relative to IL-2 alone ([1]; TIL3 (ovary), 1.0 μM Cbl-i): 43%
Expansion of TIL, total cell number relative to IL-2 alone ([1]; TIL3 (ovary), 10 μM Cbl-i): 16%
Expansion of TIL, total cell number relative to IL-2 alone ([1]; TIL3 (ovary), IL-2 + 0.1 μM Cbl-i): 103%
Expansion of TIL, total cell number relative to IL-2 alone ([1]; TIL3 (ovary), IL-2 + 1.0 μM Cbl-i): 114%
Expansion of TIL, total cell number relative to IL-2 alone ([1]; TIL3 (ovary), IL-2 + 10 μM Cbl-i): 110%
Expansion of TIL, total cell number relative to IL-2 alone ([1]; TIL4 (colon), 0.1 μM Cbl-i): 45%
Expansion of TIL, total cell number relative to IL-2 alone ([1]; TIL4 (colon), 1.0 μM Cbl-i): 58%
Expansion of TIL, total cell number relative to IL-2 alone ([1]; TIL4 (colon), 10 μM Cbl-i): 54%
Expansion of TIL, total cell number relative to IL-2 alone ([1]; TIL4 (colon), IL-2 + 0.1 μM Cbl-i): 113%
Expansion of TIL, total cell number relative to IL-2 alone ([1]; TIL4 (colon), IL-2 + 1.0 μM Cbl-i): 197%
Expansion of TIL, total cell number relative to IL-2 alone ([1]; TIL4 (colon), IL-2 + 10 μM Cbl-i): 170%
Expansion of TIL, total cell number relative to IL-2 alone ([1]; TIL5 (ovary), 0.1 μM Cbl-i): 50%
Expansion of TIL, total cell number relative to IL-2 alone ([1]; TIL5 (ovary), 1.0 μM Cbl-i): 70%
Expansion of TIL, total cell number relative to IL-2 alone ([1]; TIL5 (ovary), 10 μM Cbl-i): 90%
Expansion of TIL, total cell number relative to IL-2 alone ([1]; TIL5 (ovary), IL-2 + 0.1 μM Cbl-i): 20%
Expansion of TIL, total cell number relative to IL-2 alone ([1]; TIL5 (ovary), IL-2 + 1.0 μM Cbl-i): 10%
Expansion of TIL, total cell number relative to IL-2 alone ([1]; TIL5 (ovary), IL-2 + 10 μM Cbl-i): 20%
Expansion of TIL, total cell number relative to IL-2 alone ([1]; TIL6 (ovary), 0.1 μM Cbl-i): 93%
Expansion of TIL, total cell number relative to IL-2 alone ([1]; TIL6 (ovary), 1.0 μM Cbl-i): 87%
Expansion of TIL, total cell number relative to IL-2 alone ([1]; TIL6 (ovary), 10 μM Cbl-i): 80%
Expansion of TIL, total cell number relative to IL-2 alone ([1]; TIL6 (ovary), IL-2 + 0.1 μM Cbl-i): 280%
Expansion of TIL, total cell number relative to IL-2 alone ([1]; TIL6 (ovary), IL-2 + 1.0 μM Cbl-i): 260%
Expansion of TIL, total cell number relative to IL-2 alone ([1]; TIL6 (ovary), IL-2 + 10 μM Cbl-i): 240%
Production of TIL vs IL-2 or Cbl inhibitor alone ([1]; both IL-2 and Cbl inhibitor, TIL1 and TIL4): substantially more TIL
CD4 TCM CD62L+ CCR7+, percentage of total TIL cell number ([2]; 0.1 μM Cbl-i): 2.8%
CD4 TEM CD62L− CCR7−, percentage of total TIL cell number ([2]; 0.1 μM Cbl-i): 67.2%
CD8 TCM CD62L+ CCR7−, percentage of total TIL cell number ([2]; 0.1 μM Cbl-i): 19.5%
CD8 TEM CD62L− CCR7−, percentage of total TIL cell number ([2]; 0.1 μM Cbl-i): 37.2%
CD4 TCM CD62L+ CCR7+, percentage of total TIL cell number ([2]; 1.0 μM Cbl-i): 8.0%
CD4 TEM CD62L− CCR7−, percentage of total TIL cell number ([2]; 1.0 μM Cbl-i): 24.2%
CD8 TCM CD62L+ CCR7−, percentage of total TIL cell number ([2]; 1.0 μM Cbl-i): 20.2%
CD8 TEM CD62L− CCR7−, percentage of total TIL cell number ([2]; 1.0 μM Cbl-i): 15.6%
CD4 TCM CD62L+ CCR7+, percentage of total TIL cell number ([2]; 10 μM Cbl-i): 15.8%
CD4 TEM CD62L− CCR7−, percentage of total TIL cell number ([2]; 10 μM Cbl-i): 66.7%
CD8 TCM CD62L+ CCR7−, percentage of total TIL cell number ([2]; 10 μM Cbl-i): 29.7%
CD8 TEM CD62L− CCR7−, percentage of total TIL cell number ([2]; 10 μM Cbl-i): 13.2%
CD4 TCM CD62L+ CCR7+, percentage of total TIL cell number ([2]; IL-2 + 0.1 μM Cbl-i): 12.1%
CD4 TEM CD62L− CCR7−, percentage of total TIL cell number ([2]; IL-2 + 0.1 μM Cbl-i): 49.3%
CD8 TCM CD62L+ CCR7−, percentage of total TIL cell number ([2]; IL-2 + 0.1 μM Cbl-i): 20.3%
CD8 TEM CD62L− CCR7−, percentage of total TIL cell number ([2]; IL-2 + 0.1 μM Cbl-i): 35.5%
CD4 TCM CD62L+ CCR7+, percentage of total TIL cell number ([2]; IL-2 + 1.0 μM Cbl-i): 15.2%
CD4 TEM CD62L− CCR7−, percentage of total TIL cell number ([2]; IL-2 + 1.0 μM Cbl-i): 57.3%
CD8 TCM CD62L+ CCR7−, percentage of total TIL cell number ([2]; IL-2 + 1.0 μM Cbl-i): 16.5%
CD8 TEM CD62L− CCR7−, percentage of total TIL cell number ([2]; IL-2 + 1.0 μM Cbl-i): 43.3%
CD4 TCM CD62L+ CCR7+, percentage of total TIL cell number ([2]; IL-2 + 10 μM Cbl-i): 0%
CD4 TEM CD62L− CCR7−, percentage of total TIL cell number ([2]; IL-2 + 10 μM Cbl-i): 55.8%
CD8 TCM CD62L+ CCR7−, percentage of total TIL cell number ([2]; IL-2 + 10 μM Cbl-i): 20.5%
CD8 TEM CD62L− CCR7−, percentage of total TIL cell number ([2]; IL-2 + 10 μM Cbl-i): 35.4%
Selective expansion of CD8+ T lymphocytes ([2]; malignant ovarian tumor sample, FIG. 7): selectively expand CD8+ T lymphocytes
Number of OT-1 cells in blood (in vivo persistence) (OT-1 cells; 149 days after transfer, expanded with Cbl inhibitor or Cbl inhibitor plus IL-2): present at a higher number in the blood
Recall response after tumor re-challenge vs IL-2 alone (OT-1 cells; OT-1 cells per ml of blood at day 5, Cbl inhibitor or Cbl inhibitor plus IL-2): significantly more rapid recall response
